Drawing on PubChem BioAssay (NCI), this text covers TGI and GI50 for 14 molecules.

Several values for one entry are separate records, joined by “and”; a condition that tells them apart may be missing. Identical values can stand only once.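 Growth conditions: 96-well plates. Treatment: test compound, 48 hours, 5 concentrations. Analysis: linear interpolation between bracketing concentrations; unreached endpoints set to highest concentration. GI50: concentration for 50% inhibition of growth. The concentration for full growth arrest is given as TGI.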 Bounds are passed on as bounds.

Common to all, as to experiment: NCI anticancer screen, dose series, 48 h
Assay [1] has as its system CAKI-1 renal.
Assay [2] concerns HT29 colon.
In assay [3] the test system is NCI-H460 lung.
In assay [4] the test system is OVCAR-3 ovarian.
In assay [5] the test system is SK-MEL-28 melanoma.
Assay [6] deals with SK-OV-3 ovarian.
The subject of assay [7] is SNB-75 CNS.
The subject of assay [8] is SR leukemia.
Assay [9] relates to PC-3 prostate.
The test system of assay [10] is NCI/ADR-RES ovarian.

For the molecule `COc1ccc(-c2cc(C(=O)Nc3cccc(C(F)(F)F)c3)[nH]c(=S)n2)cc1`, the TGI in assay [1], in [2], in assay [3], in [4], in assay [5] and in [6] was greater than 100 µM in each case. Besides, the TGI in [7] and in [8] was greater than 100 µM each time.

On to `COc1ccc(CNc2cc(OC)cc(OC)c2)cc1`, for which the GI50 in [1] is > 100 µM and 34.6 µM; in assay [2], > 73.8 µM and 35 µM. Moreover, the TGI in assay [1], in [2], in [3], in [4], in assay [5] and in [6] was greater than 100 µM in each case. The TGI in assay [7] was > 100 µM and 96.8 µM.

Regarding `O=CC1=CCCC2(C1)OCCO2`, the TGI in assay [1], in [2], in assay [3], in assay [4], in [5] and in assay [6] was greater than 100 µM each time. Besides, the TGI in assay [7] is 24.2 µM.

`CC(=O)O[C@]1(C(C)=O)CC[C@H]2[C@@H]3C[C@H](C)C4=CC(=O)C=C[C@]4(C)[C@@]3(F)[C@@H](O)C[C@@]21C`: the TGI in assay [1] was greater than 100 µM; in assay [2] it was greater than 100 µM; in assay [3], greater than 100 µM; in assay [4], greater than 100 µM; in assay [5] it was greater than 100 µM; in assay [6], 51 µM. The TGI in assay [7] and in assay [8] was greater than 100 µM in each case.

With `CC(C)(C)c1nc2c(o1)C(=Nc1ccccc1)c1ccccc1C2=O`, the TGI in [1] is 64.9 µM; in assay [2], 57.8 µM; in assay [3], 19.9 µM; in assay [4], 6.24 µM; in assay [5], 10.8 µM; in assay [6] it was 63.4 µM. In addition, the TGI in [7] is 13.6 µM; in [8], greater than 100 µM.

`N=C(N)/N=C(/C=C/c1ccccc1)CC1OC(=O)c2ccccc21` (stereo not drawn): the TGI in assay [1], in [2], in [3], in assay [7] and in [8] was greater than 100 µM throughout.

For the molecule `CCOC(C)OCC#CCCBr` (stereo not drawn), the TGI in [1], in [2], in [3], in assay [4], in assay [6] and in [7] was greater than 100 µM throughout.

`OCC(O)CC[CH2][Sn]([c]1ccccc1)([c]1ccccc1)[c]1ccccc1` (stereo not drawn): the GI50 in assay [1] is 8.12 µM; in assay [2], 19 µM; in [3], 15.4 µM; in assay [4], 16.2 µM; in assay [6], 19.7 µM; in assay [7], 15.4 µM. Further, the GI50 in assay [8] was 49.3 µM. Further, the TGI was determined as 21.5 µM in assay [1]; 33.4 µM in [2]; 31.6 µM in assay [3]; 29.8 µM in assay [4]; 34.1 µM in [6]; 29 µM in assay [7]. In assay [8], this molecule had a TGI greater than 100 µM.

As to `CCOC(=O)C1NCCc2c1[nH]c1ccccc21` (stereo not drawn), the TGI in assay [1], in assay [2], in assay [4], in assay [9], in [5] and in assay [6] was greater than 10 µM throughout. For the same molecule, the TGI in assay [7] and in assay [8] was greater than 10 µM in each case.

`C[C@]12CC[C@H](O)CC1=CC[C@@H]1[C@@H]2CC[C@]2(C)C(=O)/C(=C/c3cccc(OCCCn4ccnc4)c3)C[C@@H]12`: the GI50 in assay [1] is 38.4 µM; in [2], 7.53 µM; in assay [3], 19.6 µM; in assay [4], 28.8 µM; in assay [9] it was 15.6 µM; in [5], 22.2 µM. Besides, the GI50 in [6] is 17.4 µM; in [7] it was 19.7 µM; in assay [8] it was 13.9 µM. Besides, the TGI in assay [1] was greater than 100 µM; in assay [2], 27 µM; in [3], 43.2 µM; in assay [4] it was greater than 100 µM; in assay [9] it was 39.8 µM; in assay [5], 51.5 µM. Also, the TGI amounted to 62.7 µM in [6], 38.4 µM in assay [7] and 40 µM in assay [8].

For `COc1nc(OC)c2c(=O)oc(-c3ccccc3)cc2n1`, the TGI in [1], in [2], in [5], in [6], in assay [7] and in [8] was greater than 100 µM in each case.

Take `O=c1cc2n(c(=O)[nH]1)C1OC(C(O)C1O)[C@@H]2CCO` (stereo partly drawn): the TGI in assay [1], in assay [2], in assay [3], in [5], in [6] and in assay [8] was greater than 100 µM in each case.

Regarding `CC(NC(=O)c1ccccc1)C(=O)N(Cc1ccccc1)Cc1ccccc1` (stereo not drawn), the TGI in assay [1] was greater than 100 µM; in assay [2] it was greater than 100 µM; in assay [3], 65.4 µM; in [5] it was 97.6 µM; in [6] it was greater than 100 µM; in [7], greater than 100 µM. In [8], this molecule came in with a TGI of 64.6 µM.

`COc1ccc(-c2cc3c4c(nc5ccccc5c4c2)CC(c2cc(OC)c(OC)c(OC)c2)O3)cc1` (stereo not drawn): the GI50 was 1.52 µM in assay [1]; 3.07 µM in assay [2]; 1.46 µM in [3]; 3.03 µM in [10]; 1.86 µM in [4]; 2.36 µM in assay [5]. Moreover, the GI50 in assay [6] was 4.08 µM; in assay [7], 1.13 µM; in assay [8], 2.08 µM. Also, the TGI in assay [1] was 3.06 µM; in assay [2], greater than 100 µM; in [3], 4.79 µM; in assay [10], 47.3 µM; in assay [4], 4.28 µM; in [5], 6.62 µM. Further, the values for the TGI in [6], in [7] and in assay [8] were 17.2 µM, 3.1 µM and greater than 100 µM, respectively.
